Experimental data reported in patent US20230066011A1, “PYRROLOPYRIMIDINE DERIVATIVE, AND PHARMACEUTICAL COMPOSITION FOR PREVENTING OR TREATING PROTEIN KINASE-RELATED DISEASE COMPRISING SAME AS ACTIVE INGREDIENT” (VORONOI CO., LTD., priority 2019, published 2023).

Experiments:
human GST-DYRK1A = molecular target: T1, human GST-DYRK1A (Homo sapiens, UniProt Q13627); test: GST-DYRK1A enzyme inhibition, ADP-Glo kinase assay; assay type: biochemical; settings: ATP 10 μM, GST-DYRK1A full length, read-out: DYRK1 IC50
T1 construct: purified human GST-DYRK1A (full length, Thermo Scientifics) enzyme; purchased Thermo Scientifics
Method in brief: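 Full-length enzyme (10 ng) was incubated with 10 μM ATP and a specific substrate for 1 h at 25 °C in 40 mM Tris-HCl pH 7.4, 20 mM MgCl2, 0.5 mg/mL BSA, 50 μM DTT. Luminescence was read against a solvent control, and IC50 values were derived from 3 data sets.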

LRRK2 (G2019S) = LRRK2 (G2019S) (Homo sapiens, UniProt Q5S007, G2019S); test: LRRK2 G2019S enzyme inhibition, ADP-Glo kinase assay; assay type: biochemical; parameters: purchased SignalChem L10-12GG; settings: ATP 25 μM
LRRK2 (G2019S), sequence (Q5S007 970-2527 G2019S limits assumed): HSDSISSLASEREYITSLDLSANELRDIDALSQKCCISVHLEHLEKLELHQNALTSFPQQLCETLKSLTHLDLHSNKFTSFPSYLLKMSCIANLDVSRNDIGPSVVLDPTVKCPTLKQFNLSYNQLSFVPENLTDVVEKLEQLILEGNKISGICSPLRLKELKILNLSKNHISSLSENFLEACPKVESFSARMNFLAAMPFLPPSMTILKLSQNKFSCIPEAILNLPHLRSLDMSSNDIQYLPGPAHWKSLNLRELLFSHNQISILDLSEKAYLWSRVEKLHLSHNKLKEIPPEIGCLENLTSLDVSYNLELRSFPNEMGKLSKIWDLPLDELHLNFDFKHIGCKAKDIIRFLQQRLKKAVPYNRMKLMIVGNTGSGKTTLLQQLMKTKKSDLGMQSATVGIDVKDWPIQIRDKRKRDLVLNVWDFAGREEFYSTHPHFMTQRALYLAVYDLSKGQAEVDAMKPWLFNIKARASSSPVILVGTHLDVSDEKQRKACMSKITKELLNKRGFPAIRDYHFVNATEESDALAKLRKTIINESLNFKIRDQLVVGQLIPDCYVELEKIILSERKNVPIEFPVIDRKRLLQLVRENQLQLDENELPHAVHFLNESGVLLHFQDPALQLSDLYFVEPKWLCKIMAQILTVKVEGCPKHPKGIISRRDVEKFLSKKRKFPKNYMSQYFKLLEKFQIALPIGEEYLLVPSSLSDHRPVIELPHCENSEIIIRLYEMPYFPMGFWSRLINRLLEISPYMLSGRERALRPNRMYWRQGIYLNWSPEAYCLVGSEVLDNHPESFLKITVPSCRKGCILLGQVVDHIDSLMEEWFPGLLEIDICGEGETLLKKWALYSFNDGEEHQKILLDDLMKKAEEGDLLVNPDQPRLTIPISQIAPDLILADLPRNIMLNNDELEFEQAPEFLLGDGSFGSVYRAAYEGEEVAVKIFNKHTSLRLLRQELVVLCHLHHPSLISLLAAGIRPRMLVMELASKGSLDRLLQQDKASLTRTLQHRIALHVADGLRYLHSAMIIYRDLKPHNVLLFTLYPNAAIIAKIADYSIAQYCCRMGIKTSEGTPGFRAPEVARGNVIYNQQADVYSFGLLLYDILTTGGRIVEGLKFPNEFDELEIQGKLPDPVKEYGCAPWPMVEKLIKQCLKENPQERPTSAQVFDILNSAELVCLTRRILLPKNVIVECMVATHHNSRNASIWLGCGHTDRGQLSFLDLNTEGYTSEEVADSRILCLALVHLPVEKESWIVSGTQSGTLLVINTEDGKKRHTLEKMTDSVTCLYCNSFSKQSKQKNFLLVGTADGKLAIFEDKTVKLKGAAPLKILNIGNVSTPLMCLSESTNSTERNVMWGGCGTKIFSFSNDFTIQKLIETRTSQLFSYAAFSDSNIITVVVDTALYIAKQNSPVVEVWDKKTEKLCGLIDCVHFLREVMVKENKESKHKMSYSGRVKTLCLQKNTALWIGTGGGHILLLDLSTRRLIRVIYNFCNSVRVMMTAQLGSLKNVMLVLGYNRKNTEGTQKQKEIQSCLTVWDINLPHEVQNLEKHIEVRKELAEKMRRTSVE
Method in brief: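 IC50 derived from luminescent ADP-Glo readout against untreated solvent control, twelve final compound concentrations from 50 μM downward. Reaction: recombinant human LRRK2 G2019S enzyme, 25 μM ATP, substrate, pH 7.4 Tris buffer with MgCl2/BSA/DTT, 25° C. for 2 hours.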

human GST-CLK1 = molecular target: T2, human GST-CLK1 (Homo sapiens, UniProt P49759); test: GST-CLK1 enzyme inhibition, ADP-Glo kinase assay; assay type: biochemical; settings: ATP 10 μM, GST-CLK1 129-end
T2 construct: purified human GST-CLK1 (129-end, SignalChem) enzyme; purchased SignalChem
T2 sequence (P49759 129-484 limits assumed): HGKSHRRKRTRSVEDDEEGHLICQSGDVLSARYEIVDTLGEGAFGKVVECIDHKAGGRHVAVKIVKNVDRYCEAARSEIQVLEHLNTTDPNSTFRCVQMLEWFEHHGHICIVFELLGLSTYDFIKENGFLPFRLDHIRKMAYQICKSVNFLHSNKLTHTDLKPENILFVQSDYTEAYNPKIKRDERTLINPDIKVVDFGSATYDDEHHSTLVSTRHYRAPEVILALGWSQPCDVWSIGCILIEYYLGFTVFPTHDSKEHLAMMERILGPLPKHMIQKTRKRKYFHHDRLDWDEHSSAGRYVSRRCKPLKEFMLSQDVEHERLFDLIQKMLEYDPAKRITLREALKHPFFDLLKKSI
Method in brief: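 ADP-Glo luminescence read-out, relative to untreated solvent control, gave IC50 (nM) from triplicate data sets. Reactions ran an hour at 25° C with 3 ng GST-CLK1 (residues 129-end), 10 μM ATP and specific substrate in Tris-HCl pH 7.4 buffer with MgCl2, BSA and DTT.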

SHP-77 = test: Inhibition of proliferation of SHP-77 cancer cells (Cell Titer-Glo); assay type: cell-based; settings: Homo sapiens, SHP77, 72 hours
Procedure: (§1) To evaluate an inhibitory effect on the proliferation of cancer cells, each of an MDA-MB-231 cell line (Korean Cell Line Bank #30026) and an MDA-MB-468 cell line as triple-negative breast cancer cell lines, and SHP-77 (ATCC #CRL-2195) as a small-cell lung cancer cell line was cultured in DMEM (HyClone #SH30243) or an RPMI medium (HyClone #SH3027.01) to analyze a cell growth rate. More specifically, a cell line was plated on a 96-well flat bottom plate (Corning #3903) at a density of 2,000 cells/100 μL per well, and then treated with 11 concentrations of the Example compound, a solution of which was diluted 3-fold so that a final concentration of the compound was 10.000000, 3.333333, 1.111111, 0.370370, 0.123457, 0.041152, 0.013717, 0.004572, 0.001524, 0.000508, and 0.000169 μM. After 72 hours, each of the culture media was treated with 100 μL of Cell Titer-Glo (Promega G7573), and then cultured at room temperature for 10 minutes. Then, a degree of luminescence was measured using a microplate reader. A GI50 value was calculated from the measured degree of luminescence using Prism (Version 8.2 GraphPad) software.

MDA-MB-231 cell line = test: Inhibition of proliferation of MDA-MB-231 cancer cells (Cell Titer-Glo); assay type: cell-based; settings: Homo sapiens, 72 hours
Procedure: as §1

MDA-MB-468 cell line = test: Inhibition of proliferation of MDA-MB-468 cancer cells (Cell Titer-Glo); assay type: cell-based; settings: Homo sapiens, MDA-MB-468, 72 hours
Procedure: as §1

LRRK2 = LRRK2 (Homo sapiens, UniProt Q5S007); test: LRRK2 enzyme inhibition, ADP-Glo kinase assay; assay type: biochemical; parameters: purchased Invitrogen PR8604B; settings: ATP 10 μM
LRRK2, sequence (Q5S007 970-2527 limits assumed): as the sequence (Q5S007 970-2527 G2019S limits assumed) above, with S1050G counted along it
Method in brief: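 ADP-Glo luminescent read-out of ADP formed by purified human LRRK2 enzyme (25 ng), 10 μM ATP, 0.2 μg substrate, 25° C for 2 h, Tris-HCl pH 7.4 buffer with MgCl2, BSA, DTT. Inhibition versus untreated solvent control over twelve final concentrations (50 μM downward) gives IC50.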

Row | SMILES | IC50 (human GST-DYRK1A) [µM] | IC50 (LRRK2 (G2019S)) [µM] | IC50 (human GST-CLK1) [µM] | GI50 (SHP-77) [nM] | GI50 (MDA-MB-231 cell line) [nM] | GI50 (MDA-MB-468 cell line) [nM] | IC50 (LRRK2) [µM]
1 | COc1cc(S(=O)(=O)N2CCC(N3CCOCC3)CC2)ccc1Nc1nc(NCC2CCCC2)c2c(C(F)(F)F)c[nH]c2n1 [Example 195, N^4-(cyclopentylmethyl)-N^2-(2-methoxy-4-((4-morpholinopiperidin-1-yl)sulfonyl)phenyl)-5-(trifluoromethyl)-7H-pyrrolo[2,3-d]pyrimidine-2,4-diamine] | 0.301 to 1 | – | 0.301 to 1 | 301 to 1000 | 301 to 1000 | – | –
2 | COc1cc(S(=O)(=O)N2CCOCC2)ccc1Nc1nc(NCC2CCCC2)c2c(C(F)(F)F)c[nH]c2n1 [Example 194, N^4-(cyclopentylmethyl)-N^2-(2-methoxy-4-(morpholinosulfonyl)phenyl)-5-(trifluoromethyl)-7H-pyrrolo[2,3-d]pyrimidine-2,4-diamine] | 0.301 to 1 | – | 0.301 to 1 | 301 to 1000 | 301 to 1000 | – | –
3 | CCCCNc1nc(Nc2ccc(S(=O)(=O)N3CCOCC3)cc2OC)nc2[nH]cc(C(F)(F)F)c12 [Example 207, N^4-butyl-N^2-(2-methoxy-4-(morpholinosulfonyl)phenyl)-5-(trifluoromethyl)-7H-pyrrolo[2,3-d]pyrimidine-2,4-diamine] | 0.301 to 1 | – | 0.301 to 1 | 301 to 1000 | 301 to 1000 | – | –
4 | C=CCNc1nc(Nc2ccc(S(=O)(=O)N3CCOCC3)cc2OC)nc2[nH]cc(C#N)c12 [Example 362, 4-(allylamino)-2-((2-methoxy-4-(morpholino-sulfonyl)phenyl)amino)-7H-pyrrolo[2,3-d] pyrimidine-5-carbonitrile] | 0.301 to 1 | < 0.1 | 0.301 to 1 | – | < 50 | < 50 | < 0.1
5 | COc1cc(S(=O)(=O)N2CCOCC2)ccc1Nc1nc(NCC2CCC2)c2c(C#N)c[nH]c2n1 [Example 79, 4-((cyclobutylmethyl)amino)-2-((2-methoxy-4-(morpholinosulfonyl)phenyl)amino)-7H-pyrrolo[2,3-d]pyrimidine-5-carbonitrile] | 0.301 to 1 | – | 0.301 to 1 | < 50 | 51 to 100 | – | –
6 | CC[C@H](C)Nc1nc(Nc2ccc(S(=O)(=O)N3CCC(N4CCOCC4)CC3)cc2OC)nc2[nH]cc(C(F)(F)F)c12 [Example 211, (S)-N^4-(sec-butyl)-N^2-(2-methoxy-4-((4-morpholinopiperidin-1-yl)sulfonyl)phenyl)-5-(trifluoromethyl)-7H-pyrrolo[2,3-d]pyrimidine-2,4-diamine] | 0.301 to 1 | 0.101 to 0.3 | 0.301 to 1 | – | 301 to 1000 | 301 to 1000 | < 0.1
7 | CC[C@@H](C)Nc1nc(Nc2ccc(S(=O)(=O)N3CCC(N4CCOCC4)CC3)cc2OC)nc2[nH]cc(C#N)c12 [Example 86, (R)-4-(sec-butylamino)-2-((2-methoxy-4-((4-morpholinopiperidin-1-yl)sulfonyl)phenyl)amino)-7H-pyrrolo[2,3-d]pyrimidine-5-carbonitrile] | 0.301 to 1 | – | 0.301 to 1 | < 50 | < 50 | – | –

Second part, the compound after the results:

Row | IC50 (human GST-DYRK1A) [µM] | IC50 (LRRK2 (G2019S)) [µM] | IC50 (human GST-CLK1) [µM] | GI50 (SHP-77) [nM] | GI50 (MDA-MB-231 cell line) [nM] | GI50 (MDA-MB-468 cell line) [nM] | IC50 (LRRK2) [µM] | SMILES
8 | 0.301 to 1 | < 0.1 | 0.301 to 1 | < 50 | < 50 | – | – | COc1cc(S(=O)(=O)N2CCOCC2)ccc1Nc1nc(NCC(C)C)c2c(C#N)c[nH]c2n1 [Example 65, 4-(isobutylamino)-2-((2-methoxy-4-(morpholinosulfonyl)phenyl)amino)-7H-pyrrolo[2,3-d]pyrimidine-5-carbonitrile]
9 | 0.301 to 1 | – | 0.101 to 0.3 | 301 to 1000 | 301 to 1000 | – | – | COc1cc(S(=O)(=O)N2CCOCC2)ccc1Nc1nc(NCC2CC2)c2c(C(F)(F)F)c[nH]c2n1 [Example 203, N^4-(cyclopropylmethyl)-N^2-(2-methoxy-4-(morpholinosulfonyl)phenyl)-5-(trifluoromethyl)-7H-pyrrolo[2,3-d]pyrimidine-2,4-diamine]
10 | – | – | – | < 50 | < 50 | – | – | COc1cc(S(=O)(=O)N2CCOCC2)ccc1Nc1nc(NC(C)C)c2c(C#N)c[nH]c2n1 [Example 66, 4-(isopropylamino)-2-((2-methoxy-4-(morpholinosulfonyl)phenyl)amino)-7H-pyrrolo[2,3-d]pyrimidine-5-carbonitrile]
11 | 0.301 to 1 | < 0.1 | 0.301 to 1 | < 50 | < 50 | – | – | COc1cc(S(=O)(=O)N2CCC(N3CCOCC3)CC2)ccc1Nc1nc(NCC(C)C)c2c(C#N)c[nH]c2n1 [Example 84, 4-(isobutylamino)-2-((2-methoxy-4-((4-morpholinopiperidin-1-yl)sulfonyl)phenyl)amino)-7H-pyrrolo[2,3-d]pyrimidine-5-carbonitrile]
12 | 0.301 to 1 | – | 0.301 to 1 | 101 to 300 | 101 to 300 | – | – | COc1cc(S(=O)(=O)N2CCOCC2)ccc1Nc1nc(N[C@@H]2CCOC2)c2c(C#N)c[nH]c2n1 [Example 74, (R)-2-((2-methoxy-4-(morpholinosulfonyl)phenyl)amino)-4-((tetrahydrofuran-3-yl)amino)-7H-pyrrolo[2,3-d]pyrimidine-5-carbonitrile]
13 | 0.301 to 1 | – | 0.301 to 1 | 101 to 300 | 101 to 300 | – | – | CC[C@H](C)Nc1nc(Nc2ccc(S(=O)(=O)N3CCOCC3)cc2OC)nc2[nH]cc(C#N)c12 [Example 68, (S)-4-(sec-butylamino)-2-((2-methoxy-4-(morpholinosulfonyl)phenyl)amino)-7H-pyrrolo[2,3-d]pyrimidine-5-carbonitrile]
14 | 0.101 to 0.3 | – | 0.301 to 1 | 301 to 1000 | 301 to 1000 | – | – | COc1cc(S(=O)(=O)N2CCOCC2)ccc1Nc1nc(NCC(C)C)c2c(C(F)(F)F)c[nH]c2n1 [Example 192, N^4-isobutyl-N^2-(2-methoxy-4-(morpholinosulfonyl)phenyl)-5-(trifluoromethyl)-7H-pyrrolo[2,3-d]pyrimidine-2,4-diamine]
15 | 0.301 to 1 | < 0.1 | 0.301 to 1 | 51 to 100 | 101 to 300 | – | – | COc1cc(S(=O)(=O)N2CCOCC2)ccc1Nc1nc(NCC2CCCC2)c2c(C#N)c[nH]c2n1 [Example 80, 4-(cyclo(pentylmethyl)amino)-2-((2-methoxy-4-(morpholinosulfonyl)phenyl)amino)-7H-pyrrolo[2,3-d]pyrimidine-5-carbonitrile]
16 | 0.101 to 0.3 | < 0.1 | < 0.1 | – | 101 to 300 | < 50 | < 0.1 | COCCNc1nc(Nc2ccc(S(=O)(=O)N3CCC(N4CCOCC4)CC3)cc2OC)nc2[nH]cc(C#N)c12 [Example 87, 2-((2-methoxy-4-((4-morpholinopiperidin-1-yl)sulfonyl)phenyl)amino)-4-((2-methoxyethyl)amino)-7H-pyrrolo[2,3-d]pyrimidine-5-carbonitrile]
17 | 0.301 to 1 | – | 0.301 to 1 | 301 to 1000 | 301 to 1000 | – | – | COc1cc(S(=O)(=O)N2CCOCC2)ccc1Nc1nc(NCC2CCC2)c2c(C(F)(F)F)c[nH]c2n1 [Example 200, N^4-(cyclobutylmethyl)-N^2-(2-methoxy-4-(morpholinosulfonyl)phenyl)-5-(trifluoromethyl)-7H-pyrrolo[2,3-d]pyrimidine-2,4-diamine]
